| Structure (SMILES) | melting point |
| --- | --- |
| COc1cccc(OC)c1NC(=O)Cc1c(-c2ccccc2)c2cc3c(cc2oc1=O)CCC3 [Example 1, N-(2,6-dimethoxyphenyl)-2-(2-oxo-4-phenyl-2,6,7,8-tetrahydrocyclopenta[g]chromen-3-yl)acetamide] | 213 to 215 °C |
| CCOc1cccc(OCC)c1NC(=O)Cc1c(-c2ccccc2)c2cc3c(cc2oc1=O)CCC3 [Example 2] | 216 to 219 °C |
| CC(C)c1cccc(C(C)C)c1NC(=O)Cc1c(-c2ccccc2)c2cc3c(cc2oc1=O)CCC3 [Example 3] | 261 to 263 °C |
| CCc1cccc(CC)c1NC(=O)Cc1c(-c2ccccc2)c2cc3c(cc2oc1=O)CCC3 [Example 4] | 279 to 281 °C |
| COc1cccc(C)c1NC(=O)Cc1c(-c2ccccc2)c2cc3c(cc2oc1=O)CCC3 [Example 5] | 232 to 237 °C |
| CCc1ccccc1NC(=O)Cc1c(-c2ccccc2)c2cc3c(cc2oc1=O)CCC3 [Example 6] | 234 to 237 °C |
| COc1cc(C)cc(OC)c1NC(=O)Cc1c(-c2ccccc2)c2cc3c(cc2oc1=O)CCC3 [Example 8] | 237 to 239 °C |
| COc1cccc(O)c1NC(=O)Cc1c(-c2ccccc2)c2cc3c(cc2oc1=O)CCC3 [Example 9] | 179 to 181 °C |
| COc1cc(O)cc(OC)c1NC(=O)Cc1c(-c2ccccc2)c2cc3c(cc2oc1=O)CCC3 [Example 10] | 160 °C (dec.) |
| COc1cc(O)c(NC(=O)Cc2c(-c3ccccc3)c3cc4c(cc3oc2=O)CCC4)c(OC)c1 [Example 11] | 170 to 172 °C |
| O=C(Cc1c(-c2ccccc2)c2cc3c(cc2oc1=O)CCC3)Nc1ccccc1OC(F)(F)F [Example 12] | 191 to 194 °C |
| O=C(Cc1c(-c2ccccc2)c2cc3c(cc2oc1=O)CCC3)Nc1c(OC2CCCC2)cccc1OC1CCCC1 [Example 14] | 224 to 226 °C |
| O=C(Cc1c(-c2ccccc2)c2cc3c(cc2oc1=O)CCC3)Nc1c(Cl)cncc1Cl [Example 15, N-(3,5-dichloro-4-pyridyl)-2-(2-oxo-4-phenyl-2,6,7,8-tetrahydrocyclopenta[g]chromen-3-yl)acetamide] | 257 to 259 °C |
| O=C(Cc1c(-c2ccccc2)c2cc3c(cc2oc1=O)CCC3)Nc1c(F)cc(F)cc1F [Example 17] | 247 to 249 °C |
| O=C(Cc1c(-c2ccccc2)c2cc3c(cc2oc1=O)CCC3)Nc1c(F)cccc1C(F)(F)F [Example 18] | 194 to 196 °C |
| O=C(Cc1c(-c2ccccc2)c2cc3c(cc2oc1=O)CCC3)Nc1ccc(Cl)cc1OC(F)(F)F [Example 19] | 189 to 191 °C |
| O=C(Cc1c(-c2ccccc2)c2cc3c(cc2oc1=O)CCC3)Nc1ccc(F)cc1C(F)(F)F [Example 20] | 186 to 187 °C |
| COc1cccc(OC)c1NC(=O)Cc1c(-c2ccccc2)c2cc(Cl)c(C)cc2oc1=O [Example 22] | 231 to 232 °C |
| COc1cccc(OC)c1NC(=O)Cc1c(-c2ccccc2C)c2cc(Cl)c(C)cc2oc1=O [Example 23] | 176 to 177 °C |

| Structure (SMILES) | melting point |
| --- | --- |
| CCOc1cccc(OCC)c1NC(=O)Cc1c(-c2ccccc2)c2cc(Cl)c(C)cc2oc1=O [Example 24] | 235 to 236 °C |
| Cc1cc2oc(=O)c(CC(=O)Nc3c(C(C)C)cccc3C(C)C)c(-c3ccccc3Cl)c2cc1Cl [Example 25] | 245 to 246 °C |
| CCc1cccc(CC)c1NC(=O)Cc1c(-c2ccccc2)c2cc(Cl)c(C)cc2oc1=O [Example 26] | 250 to 251 °C |
| CCOc1cccc(OCC)c1NC(=O)Cc1c(-c2ccccc2)c2cc(C)c(C)cc2oc1=O [Example 29] | 230 to 231 °C |
| CCc1cccc(CC)c1NC(=O)Cc1c(-c2ccccc2)c2cc(C)c(C)cc2oc1=O [Example 30] | 259 to 260 °C |
| Cc1cc2oc(=O)c(CC(=O)Nc3c(C(C)C)cccc3C(C)C)c(-c3ccccc3)c2cc1C [Example 31] | 252 to 253 °C |
| COc1cccc(OC)c1NC(=O)Cc1c(-c2ccccc2)c2cc(Cl)c(Cl)cc2oc1=O [Example 36] | 249 to 250 °C |
| CCOc1cccc(OCC)c1NC(=O)Cc1c(-c2ccccc2)c2cc(Cl)c(Cl)cc2oc1=O [Example 37] | 246 to 247 °C |
| CC(C)c1cccc(C(C)C)c1NC(=O)Cc1c(-c2ccccc2)c2cc(Cl)c(Cl)cc2oc1=O [Example 39] | 289 to 290 °C |
| COc1cccc(OC)c1NC(=O)Cc1c(-c2ccccc2)c2cc(Cl)c(Cl)c(Cl)c2oc1=O [Example 40] | 289 to 291 °C |
| COc1cccc(OC)c1NC(=O)Cc1c(-c2ccccc2)c2cc(F)c(F)cc2oc1=O [Example 41] | 196 to 198 °C |
| CC(C)c1cccc(C(C)C)c1NC(=O)Cc1c(-c2ccccc2)c2cc(F)c(F)cc2oc1=O [Example 42] | 255 to 256 °C |
| O=C(Cc1c(-c2ccccc2)c2cc(F)c(F)cc2oc1=O)Nc1c(OC2CCCC2)cccc1OC1CCCC1 [Example 44] | 253 to 254 °C |
| COc1cccc(OC)c1NC(=O)Cc1c(-c2ccccc2)c2cc(C)c(Cl)cc2oc1=O [Example 45] | 247 to 249 °C |
| Cc1cc2c(-c3ccccc3)c(CC(=O)Nc3c(C(C)C)cccc3C(C)C)c(=O)oc2cc1Cl [Example 46] | 280 to 282 °C |
| COc1cccc(OC)c1NC(=O)Cc1c(-c2ccccc2)c2cc(CN(C)C)c(Cl)cc2oc1=O [Example 70, 2-[7-chloro-6-{(dimethylamino)methyl}-2-oxo-4-phenyl-2H-chromen-3-yl]-N-(2,6-dimethoxyphenyl)acetamide] | 221 to 223 °C |
| COc1cccc(OC)c1NC(=O)Cc1c(-c2ccccc2)c2cc(CN3CCOCC3)c(Cl)cc2oc1=O [Example 71] | 209 to 211 °C |
| CC(C)c1cccc(C(C)C)c1NC(=O)Cc1c(-c2ccccc2)c2cc(CN(C)C)c(Cl)cc2oc1=O [Example 72] | 301 to 303 °C |
| CC(C)c1cccc(C(C)C)c1NC(=O)Cc1c(-c2ccccc2)c2cc(CN3CCOCC3)c(Cl)cc2oc1=O [Example 73] | 296 to 298 °C |

| Structure (SMILES) | melting point |
| --- | --- |
| O=C(Cc1c(-c2ccccc2)c2cc(CN3CCOCC3)c(Cl)cc2oc1=O)Nc1ccc(Cl)cc1C(F)(F)F [Example 74, 2-[7-chloro-6-{(morpholin-4-yl)methyl}-2-oxo-4-phenyl-2H-chromen-3-yl]-N-(4-chloro-2-trifluoromethylphenyl)acetamide] | 205 to 207 °C |
| COc1cccc(OC)c1NC(=O)Cc1c(-c2ccccc2)c2cc(COC(C)=O)c(Cl)cc2oc1=O [Example 80, [7-chloro-3-{2-(2,6-dimethoxyanilino)-2-oxoethyl}-2-oxo-4-phenyl-2H-chromen-6-yl]methyl acetate] | 229 to 231 °C |
| CC(=O)OCc1cc2c(-c3ccccc3)c(CC(=O)Nc3c(C(C)C)cccc3C(C)C)c(=O)oc2cc1Cl [Example 81, [7-chloro-3-{2-(2,6-isopropylanilino)-2-oxoethyl}-2-oxo-4-phenyl-2H-chromen-6-yl]]methyl acetate] | 290 to 292 °C |
| CC(=O)OCc1cc2c(-c3ccccc3)c(CC(=O)Nc3ccc(Cl)cc3C(F)(F)F)c(=O)oc2cc1Cl [Example 82, [7-chloro-3-{2-(4-chloro-2-trifluoromethylanilino)-2-oxoethyl}-2-oxo-4-phenyl-2H-chromen-6-yl]methyl acetate] | 186 to 187 °C |
| O=C(Cc1c(-c2ccccc2)c2cc(CO)c(Cl)cc2oc1=O)Nc1ccc(Cl)cc1C(F)(F)F [Example 85] | 241 to 243 °C |
| O=C(Cc1c(-c2ccccc2)c2cc(CO)ccc2oc1=O)Nc1ccc(Cl)cc1C(F)(F)F [Example 86] | 226 to 227 °C |
| O=C(Cc1c(-c2ccccc2)c2cc(Cl)c(CO)cc2oc1=O)Nc1ccc(Cl)cc1C(F)(F)F [Example 87] | 220 to 222 °C |
| O=C(Cc1c(-c2ccccc2)c2cc3c(cc2oc1=O)C(=O)CC3)Nc1ccc(F)cc1C(F)(F)F [Example 88, 2-(2,8-dioxo-4-phenyl-2,6,7,8-tetrahydrocyclopenta[g]chromen-3-yl)-N-[4-fluoro-2-(trifluoromethyl)phenyl]-acetamide] | 180 to 183 °C |
| O=C(Cc1c(-c2ccccc2)c2cc3c(cc2oc1=O)C(=O)CC3)Nc1ccc(Cl)cc1C(F)(F)F [Example 89] | 189 to 192 °C |
| COc1cccc(OC)c1NC(=O)Nc1oc2cc3c(cc2c1-c1ccccc1C)CCC3 [Example 102, N-(2,6-Dimethoxyphenyl)-N′-[3-(2-methylphenyl)-6,7-dihydro-5H-indeno[5,6-b]furan-2-yl]urea] | 208 °C (dec.) |
| Cc1cc2oc(=O)c(CC(=O)Nc3ccc(F)cc3C(F)(F)F)c(-c3ccccc3)c2cc1Br [Example 177, 2-(6-bromo-7-methyl-2-oxo-4-phenyl-2H-chromen-3-yl)-N-[4-fluoro-2-(trifluoromethyl)phenyl]acetamide] | 237 to 238 °C |
| COc1cc2c(-c3ccccc3)c(CC(=O)Nc3ccc(Cl)cc3C(F)(F)F)c(=O)oc2cc1Cl [Example 178, 2-(7-chloro-6-methoxy-2-oxo-4-phenyl-2H-chromen-3-yl)-N-[4-chloro-2-(trifluoromethyl)phenyl]acetamide] | 246 to 247 °C |
| CNCc1cc2c(-c3ccccc3)c(CC(=O)Nc3ccc(Cl)cc3C(F)(F)F)c(=O)oc2cc1Cl [Example 180, 2-[6-[(methylamino)methyl]-7-chloro-2-oxo-4-phenyl-2H-chromen-3-yl]-N-[4-chloro-2-(trifluoromethyl)phenyl]acetamide] | 205 to 207 °C |
| CCN(CC)Cc1cc2c(-c3ccccc3)c(CC(=O)Nc3ccc(Cl)cc3C(F)(F)F)c(=O)oc2cc1Cl [Example 182] | 163 to 164 °C |
| O=C(Cc1c(-c2ccccc2)c2cc(CN3CCN(c4ncccn4)CC3)c(Cl)cc2oc1=O)Nc1ccc(Cl)cc1C(F)(F)F [Example 272] | 214 to 217 °C |
| O=C(Cc1c(-c2ccccc2)c2cc(CN3CCN(c4ncccn4)CC3)c(Cl)cc2oc1=O)Nc1ccc(F)cc1C(F)(F)F [Example 273] | 203 to 205 °C |
| Cc1cc2c(-c3cccnc3)c(CC(=O)Nc3ccc(Cl)cc3C(F)(F)F)c(=O)oc2cc1Cl [Example 329] | 212 to 215 °C |
| Cc1cc2c(-c3cccnc3)c(CC(=O)Nc3ccc(F)cc3C(F)(F)F)c(=O)oc2cc1Cl [Example 330] | 213 to 215 °C |

Source: patent US6974806B2, “Lipid-rich plaque inhibitors” (Takeda Pharmaceutical Company Limited, priority 2000, dated 2005)
